In patent US6566375B1, “Elevation of HDL cholesterol by 4-[(aminothioxomethyl)-hydrazono]-N-(substituted)-4-arylbutanamides” (Wyeth, priority 1997, dated 2003):

How the values were obtained:
[1] = system: HDL cholesterol; assay: Cholesterol fed rat, in vivo assay of serum HDL cholesterol; parameters: species or system Male Sprague-Dawley rats; settings: test substance mixed in diet for 8 days, serum HDL cholesterol by FPLC
Procedure: The compounds are tested in vivo in rats fed cholesterol-augmented rodent chow for 8 days according to the test protocol and blood from the rats analyzed for HDL cholesterol.
In Vivo Assa.: Male Sprague-Dawley rats weighing 200-225 g are housed two per cage and fed Purina Rodent Chow Special Mix 5001-S supplemented with 0.25% cholic acid and 1.0% cholesterol and water ad libitum for 8 days. Each test substance is administered to a group of six rats fed the same diet with the test diet mixed in as 0.005-0.1% of the total diet. Body weight and food consumption are recorded prior to diet administration and at termination. Typical doses of the test substances are 5-100 mg/kg/day.
At termination, blood is collected from anesthetized rats and the serum is separated by centrifugation. Total serum cholesterol is assayed using the Sigma Diagnostics enzymatic kit for the determination of cholesterol, Procedure No. 352, modified for use with ninety-six well microtiter plates. After reconstitution with water the reagent contains 300 U/I cholesterol oxidase, 100 U/I horse radish peroxidase, 0.3 mmoles/l of 4-aminoantipyrine and 30.0 mmoles/l of p-hydroxybenzenesulfonate in a pH 6.5 buffer. In the reaction cholesterol is ;oxidized to produce hydrogen peroxide which is used to form a quinoneimine dye. The concentration of dye formed is measured spectrophotometrically by absorbance at 490 nm after incubation at 25° C. for 30 minutes. The concentration of cholesterol was determined for each serum sample relative to a commercial standard from Sigma.
HDL cholesterol concentrations in serum are determined by separation of lipoprotein classes by fast protein liquid chromatography (FPLC) by a modification of the method of Kieft et al., J. Lipid Res., 32 (1991) 859-866. 25 μl of serum is injected onto Superose 12 and Superose 6 (Pharmacia), in series, with a column buffer of 0.05 M Tris (2-amino-2-hydroxymethyl-1,3-propanediol) and 0.15 M sodium chloride at a flow rate of 0.5 ml/min. The eluted sample is mixed on line with Boehringer-Mannheim cholesterol reagent pumped at 0.2 ml/min. The combined eluents are mixed and incubated on line through a knitted coil (Applied Biosciences) maintained at a temperature of 45° C. The eluent is monitored by measuring absorbance at 490 nm and gives a continuous absorbance signal proportional to the cholesterol concentration. The relative concentration of each lipoprotein class is calculated as the per cent of total absorbance. HDL cholesterol concentration, in serum, is calculated as the per cent of total cholesterol as determined by FPLC multiplied by the total serum cholesterol concentration.

Structure (SMILES) | % Increase in HDL (Dose) ([1]; 82 mg/kg) [%] | melting point [°C] | % Increase in HDL (Dose) ([1]; 50 mg/kg) [%] | % Increase in HDL (Dose) ([1]; 100 mg/kg) [%]
NC(=S)NN=C(CCC(=O)NC1CCCCC1)c1ccccc1 [Example 6, 4-[(Aminothioxomethyl)-hydrazono]-N-cyclohexyl-4-phenylbutanamide] | 28.1 | 89 to 92 | – | –
CN(C)C(=O)CCC(=NNC(N)=S)c1ccccc1 [Example 7, 4-[(Aminothioxomethyl)hydrazono]-N,N-dimethyl-4-phenylbutanamide] | – | 173 to 175 | 56.2 | –
CNC(=O)CCC(=NNC(N)=S)c1ccccc1 [Example 5, 4-[(Aminothioxomrethyl)-hydrazono]-N-methyl-4-phenylbutanamide] | – | – | – | 43.3
CCCCNC(=O)CCC(=NNC(N)=S)c1ccccc1 [Example 1, 2-(4-Butylamino-4-oxo-1-phenyl-butylidene)-hydrazinothiocarboxamide] | – | 64 to 68 | – | 56
NC(=S)NN=C(CCC(=O)NCc1ccccc1)c1ccccc1 [Example 4, 4-[(Aminothioxomtethyl)-hydrazono]-N-benzyl-4-phenylbutanamide] | – | – | 49.5 | –
NC(=S)NN=C(CCC(=O)N1CCCCC1)c1ccccc1 [Example 8, 1-[4-[(Aminothioxomethyl)hydrazono]-1-oxo-4-phenylbutyl]piperidine] | – | 181 to 183 | 52.8 | –
CC(C)CCCC(C)NC(=O)CCC(=NNC(N)=S)c1ccccc1 (stereo not shown) [Example 9, 4-[(Aminothioxomethyl)-hydrazono]-N-(1,5-dimethylhexyl)-4-phenyl-butanamide] | – | 58 to 65 | 40.4 | –
NC(=O)CCC(=NNC(N)=S)c1ccccc1 [Example 3, 4-[(Aminothioxomethyl)-hydrazono]-4-phenylbutanamide] | – | 186 to 188 | 36.4 | –
CC(C)NC(=O)CCC(=NNC(N)=S)c1ccccc1 [Example 2, 4-[(Aminothioxomethyl)hydrazono]-N-(1-methylethyl)-4-phenyl-butanamide] | – | 66 to 71 | – | 61.7
